Laboratory results from patent US12630520B2, “Left-handed bicyclic morpholine and salt thereof, preparation method therefor, pharmaceutical composition, and use” (Institute of Materia Medica, Chinese Academy of Medical …, priority 2019, dated 2026).
Values joined by “and” are separate entries in the source; they are usually repeats but may differ in a detail not shown here. Equal entries are not always repeated.

Experiments:
[1] = tested on: ethionine-induced non-alcoholic fatty liver; test: Ethionine-induced mouse non-alcoholic fatty liver model; assay type: in vivo; conditions: for TC (mmol/gprot): mouse liver tissue cholesterol; for TC (mmol/gprot) / TG (mmol/gprot): 200 mg/kg intragastric once a day x3, 250 mg/kg ethionine; for TG (mmol/gprot): mouse liver tissue triglyceride; for Percent TG reduction (%) / TC reduction percent (%): mouse liver tissue, 200 mg/kg, versus model group
Description: 1. Method for Establishment of an Ethionine-Induced Mouse Non-Alcoholic Fatty Liver Model and Method of Administration SPF-grade male ICR mice (20-22 g), after acclimatization, were randomly divided into 5 groups: a blank control group, an ethionine-induced model group, a 200 mg/kg (+)IMM-H014 group, a 200 mg/kg (−)IMM-H014 group, and a 200 mg/kg (±)IMM-H014 group, 5 mice in each group. Three days before the establishment of the models, each administration group was intragastrically administrated once per day, and it was totally administrated three times. The animals in the blank control group and the model group were intragastrically administrated with the same dose of physiological saline. Each administration dose was 10 mL/kg. One hour after the last administration, the mice in each group were intragastrically administrated with 250 mg/kg ethionine once. The administration dose was 20 ml/kg. The mice were in fasting but not in water deprivation for 24 h and then the animals waited for further treatment. 2. Determinations of the Contents of Triglyceride and Cholesterol in Liver Tissues The mice were subjected to thoracotomy to take out the livers which were washed with physiological saline at 4° C. A part of the liver tissues were prepared into a 10% liver tissue homogenate with a lysate and an electric homogenizer, wherein one part was measured according to the measurement methods of a triglyceride kit and a cholesterol kit to determine the triglyceride and cholesterol therein, and the other part was measured with a BCA protein quantification kit to determine the content of proteins therein. The triglyceride and cholesterol in the liver tissues were subjected to protein corrections. By adopting SPSS software, the data each were presented as a number mean±standard deviation (x±SD).

HepG2 cells [2] = test: 4-Acetamidophenol (APAP)-induced in vitro hepatocyte injury, MTT and LDH; assay type: cell-based, human; conditions: 8 mM APAP; for LDH level in the cell culture supernatant: HepG2, 10 uM, 24 h (the FIGURE); for Survival rates (%) / OD Mean ± SD / Cell survival rate increase (%): HepG2, 10 μM; for Survival rates (%) / OD Mean ± SD: 24 h, MTT; for OD Mean ± SD: 570 nm; for Cell survival rate increase (%): versus model group
Description: (§1) Human liver cancer HepG2 cell well retained the characteristics of normal human hepatocytes, and they were grown in a DMEM medium containing 10% of fetal calf cerium (containing 100 U/mL of penicillin and 100 μg/mL of streptomycin) at the culturing conditions: 37° C., 5% of CO2 and a saturated humidity. A solution containing 0.25% of trypsin and 0.02% of EDTA was used for digestions and passages.
(§2) A MTT method was adopted. The HepG2 cells were inoculated in a 96-well cell culture plate, and after 24 hour cultures, the (+)IMM-H014, the (−)IMM-H014 and the (±)IMM-H014 were added in a non-toxic concentration whilst the 4-acetamidophenol (APAP, a final concentration of 8 mM) was added thereto. A Bicyclol positive control group, a solvent control group and a model group were set for the experiment. The culture was continued for 24 h. 100 μL of the culture solution was taken and centrifuged, and a full-automatic biochemical analyzer in a LDH detection kit was utilized to detect the LDH level therein. The remaining culture solution was discarded, and to each well, 100 μL of a MTT (0.5 mg/mL) solution was added to continue the culture for 4 hours. The MTT solution was discarded, and to each well, 150 μL of DMSO was added. The mixture was oscillated by a mixing oscillator, and the absorbance value was measured at a wavelength of 570 nm in a microplate reader. Cell survival rate (%)=(OD mean of administration group/OD mean of solvent control group)×100%.
(§3) The data were presented as a number mean±standard deviation (x±SD).

HepG2 cells [3] = test: Toxicity to HepG2 cells (cell survival rate, 48 h); assay type: cell-based, human; conditions: HepG2, 10 μM, not significantly toxic
Description: The concentration was utilized to investigate the protective effects on APAP injured hepatocytes.
The concentration was utilized to investigate the protective effects on CCl4 injured hepatocytes.

HepG2 cells [4] = test: Carbon tetrachloride (CCl4)-induced in vitro hepatocyte injury, MTT; assay type: cell-based, human; conditions: HepG2, 10 μM; for Cell survival rate increase (%): 0.6% CCl4, versus model group
Description: as §1, with “cells” for “cell”
as §2, with “carbon tetrachloride (CCl4,” for “4-acetamidophenol (APAP,”, “0.6%)” for “8 mM)”, “They acted on the cells continuously” for “The culture was continued”, “h.” for “h. 100 μL of the culture solution was taken and centrifuged, and a full-automatic biochemical analyzer in a LDH detection kit was utilized to detect the LDH level therein.”, “The” for “The remaining”, “to” for “to continue the”
as §3

[5] = tested on: ConA-induced acute immune liver injuries; test: ConA-induced mouse acute immune liver injury model; assay type: in vivo; conditions: mouse serum; for ALT (U/L) / AST (U/L) / LDH (U/L): 200 mg/kg intragastric once a day x3, 20 mg/kg ConA tail vein, n = 10; for ALT reduction percent (%) / AST reduction percent (%) / LDH reduction percent (%): 200 mg/kg, versus ConA model group
Description: 1. Method for Establishment of a ConA-Induced Mouse Acute Immune Liver Injury Model and Method of Administration SPF-grade male ICR mice (20-22 g), after acclimatization, were randomly divided into 5 groups: a blank control group, a ConA-induced model group, a 200 mg/kg (+)IMM-H014 group, a 200 mg/kg (−)IMM-H014 group, and a 200 mg/kg (±)IMM-H014 group, 10 mice in each group. Each administration group was intragastrically administrated once a day, and it was totally administrated three times. The blank control group and the model group were intragastrically administrated with the same dose of physiological saline. At 2 hours after the last administration, the mice in each group except the blank control group, were injected once with 20 mg/kg ConA in the tail vein, and each administration dose was 10 ml/kg. The mice were in fasting but not in water deprivation for 16 h and then the animals waited for further treatment. 2. Determination of Biochemical Indexes The mice were decapitated and blood was taken, and the blood samples were kept still at room temperature for 2 h and centrifuged at 4000 rpm for 10 min, to separate the serum. The ALT, AST and LDH contents in the serum were detected with a full-automatic biochemical analyzer. The data each were presented as a number mean±standard deviation (x±SD).

Compound | TC (mmol/gprot) [1] [mmol/gprot] | TG (mmol/gprot) [1] [mmol/gprot] | Percent TG reduction (%) [1] [%] | TC reduction percent (%) [1] [%] | LDH level in the cell culture supernatant (HepG2 cells [2]) | Survival rates (%) (HepG2 cells [2]) | OD Mean ± SD (HepG2 cells [2]) | Cell survival rate increase (%) (HepG2 cells [2]) | cell survival rate (HepG2 cells [3]) [%] | Survival rates (%) (HepG2 cells [4]; 0.6% CCl4, 24 h, MTT) | Cell survival rate increase (%) (HepG2 cells [4]) | ALT (U/L) [5] | AST (U/L) [5] | LDH (U/L) [5] | ALT reduction percent (%) [5] [%] | AST reduction percent (%) [5] [%] | LDH reduction percent (%) [5] [%] | OD Mean ± SD (HepG2 cells [4]; 0.6% CCl4, 24 h, MTT, 570 nm) | Percent TG reduction (%) ([1]; listed as (−) IMM-H014, 200 mg/kg)
COC(=O)c1cc(OC)c2c(c1-c1c(CN3CCOCC3)cc(OC)c3c1OCO3)OCO2 (racemic) [(±)IMM-H014] | 0.063 ± 0.013 | 0.110 ± 0.005 | 56.6 | 30.0 | could reduce the LDH levels | 50.63 | 0.453 ± 0.032 | 32.1% | 90 | 92.09 | 18.74 | 107.0 ± 108.7 U/L | 725.0 ± 417.3 U/L | 3466.7 ± 1772.4 U/L | 88.6 | 22.2 | 6.4 |  | 
COC(=O)c1cc(OC)c2c(c1-c1c(CN3CCOCC3)cc(OC)c3c1OCO3)OCO2 [(+)IMM-H014] | 0.065 ± 0.022 | 0.235 ± 0.070 | 7.1 | 27.2 | could reduce the LDH levels | 54.58 | 0.489 ± 0.098 | 41.4% and 42.4% | 90 | 87.32 | 12.59 | 44.4 ± 29.1 U/L | 514.3 ± 310.7 U/L | 2680.0 ± 1190.8 U/L | 95.3 | 44.8 | 27.6 | 0.799 ± 0.014 | 
COC(=O)c1cc(OC)c2c(c1-c1c(CN3CCOCC3)cc(OC)c3c1OCO3)OCO2 [(−)IMM-H014] | 0.061 ± 0.013 | 0.154 ± 0.040 | 39.0 | 32.4 | could reduce the LDH levels | 67.01 | 0.600 ± 0.054^###& | 74.8% | 90 | 104.44 | 34.66 | 25.6 ± 17.4^###& U/L | 252.9 ± 233.5^##& U/L | 1690.0 ± 929.3^##& U/L | 97.3 | 72.9 | 54.4 |  | 39.0
